Reference: US8927717B1, “Thiochromeno[2,3-c]quinolin-12-one derivatives, preparation method and application thereof” (National Defense Medical Center, priority 2014, dated 2015)

Assays:
[1] = test system: HOP-92; type: cell-based; details: 10^−5 molar; for Growth percent: HOP-92
[2] = test system: HL-60(TB); type: cell-based
[3] = test system: CCRF-CEM; type: cell-based
[4] = test system: HCC-2998; type: cell-based
[5] = test system: RPMI-8226; type: cell-based
[6] = test system: SK-OV-3; type: cell-based
[7] = test system: SK-MEL-5; type: cell-based
[8] = test system: NCI-H460; type: cell-based
[9] = test system: COLO 205; type: cell-based
[10] = test system: BT-549; type: cell-based
[11] = test system: SK-MEL-2; type: cell-based
[12] = test system: M14; type: cell-based
[13] = test system: IGROV1; type: cell-based
[14] = test system: UACC-257; type: cell-based
[15] = test system: HCT-116; type: cell-based
[16] = test system: PC-3; type: cell-based
[17] = test system: SF-539; type: cell-based
[18] = test system: OVCAR-3; type: cell-based
[19] = test system: OVCAR-4; type: cell-based
[20] = test system: CAKI-1; type: cell-based
[21] = Leukemia, 10^−5 molar, 48 hours, SRB
[22] = Colon cancer, 10^−5 molar, 48 hours, SRB
[23] = Homo sapiens, HCC-2998, five dose
[24] = Ovarian cancer, 10^−5 molar, 48 hours, SRB
[25] = Melanoma, 10^−5 molar, 48 hours, SRB
[26] = Homo sapiens, NCI-H460, five dose
[27] = Homo sapiens, COLO 205, five dose
[28] = Homo sapiens, SK-Mel-2, five dose
[29] = Homo sapiens, HCT-116, five dose
[30] = Homo sapiens, SF-539, five dose

O=c1c2cc(Cl)ccc2sc2c(NCCN3CCOCC3)nc3ccccc3c12 [Compound N16, 10-Chloro-6-((2-morpholinoethyl)amino)-12H-thiochromeno[2,3-c]quinolin-12-one]
Growth percent [1]: 58.79% | Growth percent ([2]; HL-60(TB), 10^−5 molar): 104.97% | Growth percent ([3]; CCRF-CEM, 10^−5 molar): 82.21% | Growth percent ([4]; HCC-2998, 10^−5 molar): 90.51% | Growth percent ([5]; RPMI-8226, 10^−5 molar): 92.20% | Growth percent ([6]; SK-OV-3, 10^−5 molar): 85.34% | Growth percent ([7]; SK-MEL-5, 10^−5 molar): 91.61% | Growth percent ([8]; NCI-H460, 10^−5 molar): 100.49% | Growth percent ([9]; COLO 205, 10^−5 molar): 79.39% | Growth percent ([10]; BT-549, 10^−5 molar): 91.21% | Growth percent ([11]; SK-Mel-2, 10^−5 molar): 94.52% | Growth percent ([12]; M14, 10^−5 molar): 99.59% | Growth percent ([13]; IGROV1, 10^−5 molar): 74.11% | Growth percent ([14]; UACC-257, 10^−5 molar): 106.52% | Growth percent ([15]; HCT-116, 10^−5 molar): 81.64% | melting point: 189 to 190 °C | Growth percent ([16]; PC-3, 10^−5 molar): 67.82% | Growth percent ([17]; SF-539, 10^−5 molar): 76.72% | Growth percent ([18]; OVCAR-3, 10^−5 molar): 97.14%

CCNc1nc2ccccc2c2c(=O)c3cc(Cl)ccc3sc12 [Compound N2, 10-Chloro-6-ethylamino-12H-thiochromeno[2,3-c]quinolin-12-one]
Growth percent HOP-92 ([1]; Non-small cell lung cancer, 48 hours, SRB): −0.07% | TGI ([2]; HL-60(TB), five dose): >100 µM | GI50 ([2]; Homo sapiens, HL-60(TB), five dose): > 100 µM | CC50 ([2]; Homo sapiens, HL-60(TB), five dose, read-out: LC50 (the source's name)): > 100 µM | Growth percent HL-60(TB) [2, 21]: 103.33% | TGI ([3]; CCRF-CEM, five dose): >100 µM | GI50 ([3]; Homo sapiens, CCRF-CEM, five dose): > 100 µM | CC50 ([3]; Homo sapiens, CCRF-CEM, five dose, read-out: LC50 (the source's name)): > 100 µM | Growth percent CCRF-CEM [3, 21]: 88.62% | Growth percent HCC-2998 [4, 22]: 98.02% | TGI ([4]; HCC-2998, five dose): >100 µM | GI50 [4, 23]: > 100 µM | LC50 [4, 23]: > 100 µM | GI50 ([5]; Homo sapiens, RPMI-8226, five dose): > 100 µM | CC50 ([5]; Homo sapiens, RPMI-8226, five dose, read-out: LC50 (the source's name)): > 100 µM | Growth percent RPMI-8226 [5, 21]: 79.66% | TGI ([5]; RPMI-8226, five dose): >100 µM | GI50 ([6]; Homo sapiens, SK-OV-3, five dose): 11.1 µM | CC50 ([6]; Homo sapiens, SK-OV-3, five dose, read-out: LC50 (the source's name)): > 100 µM | Growth percent SK-OV-3 [6, 24]: 28.90% | TGI ([6]; SK-OV-3, five dose): 35.20 µM | LC50 ([7]; Homo sapiens, SK-MEL-5, five dose): > 100 µM | Growth percent SK-MEL-5 [7, 25]: 73.99% | TGI ([7]; SK-MEL-5, five dose): >100 µM | GI50 [8, 26]: > 100 µM | LC50 [8, 26]: > 100 µM | TGI ([8]; NCI-H460, five dose): >100 µM | Growth percent NCI-H460 ([8]; Non-small cell lung cancer, 10^−5 molar, 48 hours, SRB): 53.33% | GI50 ([19]; Homo sapiens, OVCAR-4, five dose): > 100 µM | CC50 ([19]; Homo sapiens, OVCAR-4, five dose, read-out: LC50 (the source's name)): > 100 µM | TGI ([19]; OVCAR-4, five dose): >100 µM | Growth percent OVCAR-4 [19, 24]: 23.19% | TGI ([9]; COLO 205, five dose): >100 µM | Growth percent COLO 205 [9, 22]: 82.36% | GI50 [9, 27]: > 100 µM | LC50 [9, 27]: > 100 µM | TGI ([10]; BT-549, five dose): >100 µM | Growth percent BT-549 ([10]; Breast cancer, 10^−5 molar, 48 hours, SRB): 100.10% | GI50 ([10]; Homo sapiens, BT-549, five dose): 9.87 µM | CC50 ([10]; Homo sapiens, BT-549, five dose, read-out: LC50 (the source's name)): > 100 µM | GI50 [11, 28]: 16.3 µM | LC50 [11, 28]: > 100 µM | Growth percent SK-MEL-2 [11, 25]: 76.15% | TGI ([11]; SK-Mel-2, five dose): 43.2 µM | TGI ([20]; CAKI-1, five dose): >100 µM | GI50 ([20]; Homo sapiens, CAKI-1, five dose): 26.4 µM | CC50 ([20]; Homo sapiens, CAKI-1, five dose, read-out: LC50 (the source's name)): > 100 µM | Growth percent CAKI-1 ([20]; Renal cancer, 10^−5 molar, 48 hours, SRB): 72.44% | GI50 ([12]; Homo sapiens, M14, five dose): > 100 µM | LC50 ([12]; Homo sapiens, M14, five dose): > 100 µM | TGI ([12]; M14, five dose): >100 µM | Growth percent M14 [12, 25]: 91.72% | GI50 ([13]; Homo sapiens, IGROV-1, IGROV1, five dose): 11.9 µM | CC50 ([13]; Homo sapiens, IGROV-1, IGROV1, five dose, read-out: LC50 (the source's name)): > 100 µM | TGI ([13]; IGROV1, five dose): 54.40 µM | Growth percent IGROV1 [13, 24]: 59.26% | GI50 ([14]; Homo sapiens, UACC-257, five dose): > 100 µM | CC50 ([14]; Homo sapiens, UACC-257, five dose, read-out: LC50 (the source's name)): > 100 µM | Growth percent UACC-257 [14, 25]: 75.21% | TGI ([14]; UACC-257, five dose): >100 µM | Growth percent HCT-116 [15, 22]: 48.13% | TGI ([15]; HCT-116, five dose): >100 µM | GI50 [15, 29]: 6.31 µM | LC50 (concentration killing 50% of cells) [15, 29]: > 100 µM | GI50 ([16]; Homo sapiens, PC-3, five dose): > 100 µM | CC50 ([16]; Homo sapiens, PC-3, five dose, read-out: LC50 (the source's name)): > 100 µM | TGI ([16]; PC-3, five dose): >100 µM | Growth percent PC-3 ([16]; Prostate cancer, 10^−5 molar, 48 hours, SRB): 77.80% | Growth percent SF-539 ([17]; CNS cancer, 10^−5 molar, 48 hours, SRB): 60.35% | GI50 [17, 30]: 10.1 µM | LC50 [17, 30]: > 100 µM | TGI ([17]; SF-539, five dose): 58.50 µM | GI50 ([18]; Homo sapiens, OVCAR-3, five dose): 52.4 µM | CC50 ([18]; Homo sapiens, OVCAR-3, five dose, read-out: LC50 (the source's name)): > 100 µM | TGI ([18]; OVCAR-3, five dose): >100 µM | Growth percent OVCAR-3 [18, 24]: 76.51%

COc1ccc(CCNc2nc3ccccc3c3c(=O)c4cc(Cl)ccc4sc23)cc1 [Compound N31, 10-Chloro-6-((4-methoxyphenethyl)amino)-12H-thiochromeno[2,3-c]quinolin-12-one]
Growth percent [1]: 67.57% | Growth percent ([2]; HL-60(TB), 10^−5 molar): 94.27% | Growth percent ([3]; CCRF-CEM, 10^−5 molar): 100.93% | Growth percent ([4]; HCC-2998, 10^−5 molar): 105.27% | Growth percent ([5]; RPMI-8226, 10^−5 molar): 99.98% | Growth percent ([6]; SK-OV-3, 10^−5 molar): 96.11% | Growth percent ([7]; SK-MEL-5, 10^−5 molar): 85.38% | Growth percent ([8]; NCI-H460, 10^−5 molar): 98.14% | Growth percent ([19]; OVCAR-4, 10^−5 molar): 79.00% | Growth percent ([9]; COLO 205, 10^−5 molar): 105.41% | Growth percent ([10]; BT-549, 10^−5 molar): 105.24% | Growth percent ([11]; SK-Mel-2, 10^−5 molar): 113.12% | Growth percent ([20]; CAKI-1, 10^−5 molar): 85.75% | Growth percent ([12]; M14, 10^−5 molar): 100.06% | Growth percent ([13]; IGROV1, 10^−5 molar): 86.73% | Growth percent ([14]; UACC-257, 10^−5 molar): 98.66% | Growth percent ([15]; HCT-116, 10^−5 molar): 98.46% | melting point: 214 to 215 °C | Growth percent ([16]; PC-3, 10^−5 molar): 84.95% | Growth percent ([17]; SF-539, 10^−5 molar): 95.67%
